Measured values as given in patent publication US20230286973A1, “PROTEIN SECRETION INHIBITORS” (KEZAR LIFE SCIENCES, priority 2020, published 2023).

Experiments:
[1] = system: IL-2-FL/Gaussia Luciferase; assay: Dox Induced IL2-FL-Gluc Assay; type: cell-based; conditions: for IC50: 24 hr Dox induction, 293FRT/TO cells, mean, read-out: 24 hr Dox Inducible IL2FLGluc 293FRT/TO: Mean IC50; for 24 hr Dox Inducible IL2FLGluc 293FRT/TO: IL2/PD1: ratio of IL2FLGluc IC50 to PD1ssGluc IC50, '<=>' given where both are I.A.
Procedure, shortened: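 Stable Flp-In 293 T-REx line, Tet-regulated IL-2 (aa 1-153)–Gaussia luciferase fusion; hygromycin/blasticidin selected. Plated day -1; compound + doxycycline added next day; 37° C, 5% CO2.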

[2] = system: multiple myeloma cell line U266B1; assay: U266 Cell Viability Assay; type: cell-based, human; conditions: Homo sapiens, U-266, 48 h, U266B1 cells, Celltiter-Glo
Procedure, shortened: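 Luminescent ATP read-out (CellTiter-Glo) after 48 h compound exposure at 37° C., 5% CO2; cells maintained in RPMI 1640/10% FBS/2 mM glutamine/pen-strep, compounds diluted in DMSO/media.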

[3] = system: multiple myeloma cell line NCI-H929; assay: H929 Cell Viability Assay; type: cell-based, human; conditions: Homo sapiens, NCI-H929, 48 h, NCI-H929 cells, Celltiter-Glo
Procedure, shortened: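 Cells in RPMI 1640/10% FBS; compound dilutions in DMSO/media; 48 h, 37° C, 5% CO2; CellTiter-Glo luciferase readout for viability.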

[4] = Liver Microsome Stability Assay (mouse); conditions: mouse liver microsomes, with NADPH, 1.0 uM compound
Description: (§1) Stability of a compound was assessed in the presence of liver microsomes from various sources—mouse, rat, monkey and human liver microsomes. 1.0 uM compound, 0.4% DMSO in 0.1 M Potassium Phosphate with 1.0 mg/mL liver microsomes, were incubated at 37° C. with or without 1 mM NADPH. The samples were quenched at 0, and 30 minutes.

[5] = Liver Microsome Stability Assay (rat); conditions: rat liver microsomes, with NADPH, 1.0 uM compound
Description: as §1

[6] = system: TNFα-FL/Gaussia Luciferase; assay: Dox Induced TNFα-FL-Gluc Assay; type: cell-based; conditions: for IC50: 24 hr Dox induction, 293FRT/TO cells, mean, read-out: 24 hr Dox Inducible TNFaFLGluc 293FRT/TO: Mean IC50; for 24 hr Dox Inducible TNFaFLGluc 293FRT/TO: TNF/PD1: ratio of TNFaFLGluc IC50 to PD1ssGluc IC50, '<=>' given where both are I.A.
Procedure, shortened: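 Cell line: stable Flp-In 293 T-REx, TNFα-FL(1-233)-Gaussia luciferase fusion, T-REx-inducible. Plated day -1; compounds in DMSO/media + doxycycline, 37 °C, 5% CO2. Undefined stereocentres = mixture tested.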

[7] = Liver Microsome Stability Assay (monkey); conditions: monkey liver microsomes, with NADPH, 1.0 uM compound
Description: as §1

[8] = system: PD1-ss+10aa/Gaussia Luciferase; assay: Dox-Induced PD1-ss-Gluc Assay; type: cell-based; conditions: 24 hr Dox induction; 293FRT/TO cells; mean; read-out: 24 hr Dox Inducible PD1ssGluc 293FRT/TO: Mean IC50
Procedure, shortened: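 Doxycycline-induced expression of a PD1-ss+10aa/Gaussia luciferase reporter is measured in stable Flp-In 293 T-REx cells. Compound dilutions containing doxycycline are added one day after plating and incubated at 37 °C, 5% CO2. Values for unassigned stereocentres refer to stereoisomer mixtures.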

[9] = system: HER3-ss+4aa/Gaussia Luciferase; assay: Dox-Induced Her3-ss-Gluc Assay; type: cell-based; conditions: 24 hr Dox induction; 293FRT/TO cells; mean; read-out: 24 hr Dox Inducible Her3(ss + 4)Gluc 293FRT/TO: Mean IC50
Procedure, shortened: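 Flp-In 293 T-REx cells, stable HER3-ss+4aa/Gaussia luciferase insert, hygromycin/blasticidin selected; plated day before; compound in DMSO/media + doxycycline; 37° C., 5% CO2.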

[10] = Liver Microsome Stability Assay (human); conditions: human liver microsomes, with NADPH, 1.0 uM compound
Description: as §1

| Compound | IC50 [1] [µM] | 24 hr Dox Inducible IL2FLGluc 293FRT/TO: IL2/PD1 [1] | EC50 [2] [µM] | EC50 [3] [µM] | Liver Microsome Stability (Multiple Species): Mouse - % Remaining after 30 min w/NADPH [4] [%] | Liver Microsome Stability (Multiple Species): Rat - % Remaining after 30 min w/NADPH [5] [%] | IC50 [6] [µM] | 24 hr Dox Inducible TNFaFLGluc 293FRT/TO: TNF/PD1 [6] | Liver Microsome Stability (Multiple Species): Monkey - % Remaining after 30 min w/NADPH [7] [%] | IC50 [8] [µM] | IC50 [9] [µM] | Liver Microsome Stability (Multiple Species): Human - % Remaining after 30 min w/NADPH [10] [%] |
| --- | --- | --- | --- | --- | --- | --- | --- | --- | --- | --- | --- | --- |
| CC(C)c1ccc(/C=C/c2csc(NC(=O)c3cccn3CC3CCOCC3)n2)nc1 [Compound D6, (E)-N-(4-(2-(5-isopropylpyridin-2-yl)vinyl)thiazol-2-yl)-1-((tetrahydro-2H-pyran-4-yl)methyl)-1H-pyrrole-2-carboxamide] | > 25 | >42 | 12.3 | 8.68 | 0.09 | 0.06 | > 25 | >42.0 | 0.04 | 0.595 | 6.2 | 0.03 |
| CC(C)n1cnc(/C=C/c2csc(NC(=O)c3cccn3CC3CCOCC3)n2)c1 [Compound D7, (E)-N-(4-(2-(1-isopropyl-1H-imidazol-4-yl)vinyl)thiazol-2-yl)-1-((tetrahydro-2H-pyran-4-yl)methyl)-1H-pyrrole-2-carboxamide] | > 25 | >8.8 | > 25 | > 25 | 0.56 | 2.55 | > 25 | >8.84 | 0.07 | 2.83 | > 25 | 0.04 |
| Cc1ccnc(/C=C/c2csc(NC(=O)c3cccn3Cc3ccncc3)n2)c1 [Compound E1, (E)-N-(4-(2-(4-methylpyridin-2-yl)vinyl)thiazol-2-yl)-1-(pyridin-4-ylmethyl)-1H-pyrrole-2-carboxamide] | 22.1 | 140 | > 25 | 23.9 | 0.33 | 0.33 | > 25 | >163 | 0.53 | 0.154 | 4.13 | 0.57 |
| C/C(=C\c1ccc(OC(F)(F)F)cn1)c1csc(NC(=O)c2cccn2Cc2ccncc2)n1 [Compound E2, (E)-1-(pyridin-4-ylmethyl)-N-(4-(1-(5-(trifluoromethoxy)pyridin-2-yl)prop-1-en-2-yl)thiazol-2-yl)-1H-pyrrole-2-carboxamide] | 0.53 | 23 | > 25 | 7.34 | 28.6 | 35.4 | 4.85 | 208 | 13.5 | 0.0234 | 0.409 | 17.5 |
| O=C(Nc1nc(C#Cc2ccccn2)cs1)c1cccn1Cc1ccncc1 [Compound E3, N-(4-(pyridin-2-ylethynyl)thiazol-2-yl)-1-(pyridin-4-ylmethyl)-1H-pyrrole-2-carboxamide] | 13.1 | 16 | > 25 | > 25 | 2.41 | 0.35 | > 25 | >31.3 | 0.6 | 0.798 | 7.18 | 0.35 |
| Cc1nc(CCc2csc(NC(=O)c3cccn3Cc3ccncc3)n2)co1 [Compound E4] | 5.2 | 12 | > 25 | > 25 | 0.27 | 0.19 | > 25 | >57.0 | 0.14 | 0.439 | 5.08 | 0.12 |
| C/C(=C\c1csc(NC(=O)c2cccn2Cc2ccncc2)n1)c1ccc(OC(F)(F)F)cn1 [Compound E5, (E)-1-(pyridin-4-ylmethyl)-N-(4-(2-(5-(trifluoromethoxy)pyridin-2-yl)prop-1-en-1-yl)thiazol-2-yl)-1H-pyrrole-2-carboxamide] | 1.23 | 9.8 | 19.6 | 8.09 | 16.7 | 46.1 | > 25 | >199 | 2.47 | 0.125 | 1.06 | 5.77 |
| O=C(Nc1nc(CCC2CCCCO2)cs1)c1cccn1Cc1ccncc1 (stereo not drawn) [Compound E6, 1-(pyridin-4-ylmethyl)-N-(4-(2-(tetrahydro-2H-pyran-2-yl)ethyl)thiazol-2-yl)-1H-pyrrole-2-carboxamide] | 1.78 | 8.6 | > 25 | 24.2 | 1.82 | 0.75 | 6.04 | 29.1 | 0.57 | 0.208 | 1.28 | 0.67 |
